Tests used:
[1] = tested on: mouse tail model of lymphedema; assay: Mouse tail model of lymphedema (tail volume, histology, immunostaining, lymphoscintigraphy, NIR imaging, PCR, ELISA); assay type: in vivo, C57BL/6J mice
[2] = tested on: hind limb lymphatic ablation with DT; assay: Hind limb lymphatic ablation with DT; assay type: in vivo, mouse
[3] = tested on: popliteal lymph node dissection (PLND) mouse model; assay: Popliteal lymph node dissection (PLND) hind limb model of lymphatic injury
[4] = topical captopril 5% once daily, 6 weeks after tail lymphatic ablation, vs control
[5] = captopril after DT lymphatic ablation, ipsilateral limb vs ipsilateral control
[6] = topical captopril 5% once daily for 2 weeks after PLND, vs control
[7] = systemic pirfenidone, oral 400 mg/kg daily for 3 weeks from 7 weeks after surgery, vs control
[8] = systemic pirfenidone, vs control
[9] = topical pirfenidone 1 mg/ml daily for 3 weeks from 7 weeks after surgery, vs control
[10] = topical pirfenidone, vs control
[11] = systemic pirfenidone once daily for 2 weeks from 2 weeks after PLND, 4 weeks after PLND, vs vehicle
[12] = systemic pirfenidone, 4 weeks after PLND, vs control

## C[C@H](CS)C(=O)N1CCC[C@H]1C(=O)O [captopril]
[1]; [4]
  ACE staining area: significant decrease
  LYVE-1+ lymphatic vessel area: significant decrease
  dermal type I collagen staining area: significant decrease
  number of lymphatic vessels (LYVE-1+) crossing the region of the tail wound: increases
  perilymphatic CD3+ cells/vessel: significant decrease
  perilymphatic F4/80 cells/vessel: significant decrease
  subcutaneous fibroadipose tissue deposition: significant decrease
[1]; topical captopril ointment, 6 weeks after tail lymphatic ablation, vs control
  tail collecting vessel pumping (contraction) frequency: increases
[2]; [5]
  LYVE-1+ lymphatic vessel area: significant decrease
  T cell (CD3+) infiltration in hind limb tissues: decreases
  hind limb angiotensin converting enzyme (ACE) expression: decreases
  hind limb collecting vessel smooth muscle (α-SMA) deposition: decreases
  hind limb lymphangiogenesis (LYVE-1+ lymphatic vessels): decreases
  hind limb macrophage (F4/80+) infiltration: decreases
  hind limb type I collagen deposition: decreases
[2]; captopril after DT lymphatic ablation, vs control
  formation of collateral lymphatics (ICG): increases
[2]; captopril treatment after hind limb lymphatic ablation with DT, vs control
  foot swelling: obvious decrease
[3]; [6]
  T cell (CD3+) infiltration in hind limb tissues: decreases
  hind limb collecting lymphatic pumping (packet frequency): increases
  lymphangiogenesis (LYVE-1+ vessels): increases
  macrophage (F4/80+) infiltration in hind limb tissues: decreases
  trafficking of dendritic cells (FITC+CD11c cells in inguinal lymph nodes): increases
[3]; topical captopril 5% once daily for 2 weeks after PLND, vs vehicle
  lymphatic function: improved lymphatic function

## Cc1ccc(=O)n(-c2ccccc2)c1 [pirfenidone]
[1]; pirfenidone (FIG. 20I: systemic), vs control
  TGF-β1 protein accumulation (ELISA): decreased accumulation
[1]; pirfenidone (FIG. 20J: systemic), vs control
  accumulation of IFN-γ protein (ELISA): significant decrease
[1]; pirfenidone (FIG. 20K: systemic), vs control
  VEGF-C protein accumulation (ELISA): no difference
[1]; pirfenidone treatment (systemic and topical, FIG. 20A, 20D), vs control
  numbers of infiltrating CD4+ cells: marked decreases
[1]; pirfenidone treatment from 7 weeks after surgery, vs control
  numbers of infiltrating CD3+ cells: marked decreases
[1]; pirfenidone, vs control
  lymphatic vessels density (LYVE-1) in the tail: marked increase
[1]; pirfenidone-treated animals vs control
  type I collagen around collecting lymphatics (α-SMA+/podoplanin+): essentially normal lymphatic vessels
[1]; [7]
  soft tissue thickness: markedly decreased
  tail volume: markedly decreased
[1]; [8]
  F4/80+ cellular infiltration in lymphedematous tail tissues: no difference
  accumulation of TGF-β1+ cells: markedly decreased
  accumulation of pSMAD3+ cells: markedly decreased
  dermal and subcutaneous type I collagen deposition: significantly decreased
  increase in decay-adjusted 99Tc uptake of the sacral lymph nodes: ~4 fold
  increase in peak nodal uptake of 99Tc: ~4 fold
  numbers of leukocytes infiltrating the dermis and subcutaneous fat: markedly decreased
  rate of 99Tc uptake (slope of decay-adjusted curve): increased
[1]; [9]
  soft tissue thickness: markedly decreased
  tail volume: markedly decreased
[1]; [10]
  F4/80+ cellular infiltration in lymphedematous tail tissues: no difference
  accumulation of TGF-β1+ cells: markedly decreased
  accumulation of pSMAD3+ cells: markedly decreased
  dermal and subcutaneous type I collagen deposition: significantly decreased
  increase in decay-adjusted 99Tc uptake of the sacral lymph nodes: ~4 fold
  increase in peak nodal uptake of 99Tc: ~4 fold
  numbers of leukocytes infiltrating the dermis and subcutaneous fat: markedly decreased
  rate of 99Tc uptake (slope of decay-adjusted curve): increased
[3]; systemic pirfenidone once daily for 2 weeks from 2 weeks after PLND, 4 weeks after PLND, vs control
  lymphatic vessels density (LYVE-1) in the hind limb: marked increase
[3]; [11]
  dermal backflow and capillary vessel leakage (NIR lymphangiography): markedly less
  increase in rate of collecting lymphatic vessel contraction: 2 fold
[3]; [12]
  perilymphatic expression of iNOS by inflammatory cells: significant decrease
  perilymphatic infiltration of inflammatory cells (CD45+): significant decrease

## C/C(O)=C(\C#N)C(=O)Nc1ccc(C(F)(F)F)cc1 [teriflunomide]
[1]; topical teriflunomide 27 mg/ml once daily for 4 weeks from 2 weeks after surgery, 6 weeks after lymphatic ablation, vs vehicle
  decrease in tail volume: ~6 fold
[1]; topical teriflunomide 27 mg/ml, vs control
  decrease in number of infiltrating CD4+ cells in tail tissues: more than 8 fold
[3]; topical teriflunomide 27 mg/ml after PLND, vs control
  increase in number of DCs trafficked to the inguinal lymph node (FITC painting): more than 5 fold
[3]; topical teriflunomide 27 mg/ml once daily for 2 weeks from 2 weeks after PLND, vs vehicle
  increase in formation of collateral lymphatic vessels bypassing the zone of injury (ICG near infra-red imaging): 4.5 fold
